Results published in ChEMBL document CHEMBL1155018, “Toward prediction of alkane/water partition coefficients” (J Med Chem, 2008).

Legend:
in vivo = details: Wistar, rat
[1] = hexadecane/water, pH 7.4
physchem [2] = details: octanol/water, pH 7.4
physchem [3] = details: octanol/water
[4] = hexadecane/water
Description: Hexadecane-water partition coefficient, log P of the compound

[5] = octanol/water
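Throughout, for Kp: drug concentration in brain divided by that in blood, measured in Wistar rats.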

SMILES	logD [1]	logD (physchem [2])	also measured
CN1Cc2c(-c3noc(C(C)(O)CO)n3)ncn2-c2cccc(Cl)c2C1=O (configuration not stated)			Kp (in vivo; brain): 0.0151
CN1Cc2c(-c3noc(C(C)(C)O)n3)ncn2-c2cccc(Cl)c2C1=O			Kp (in vivo; brain / blood): 0.0457
CC(C)c1nc(-c2ncn3c2CN(C)C(=O)c2c(Cl)cccc2-3)no1			Kp (in vivo; brain / blood): 0.501
[O-][S+](c1ccccc1)c1ccccc1	0.66	2.1	
Cn1cnc2ccccc21	-0.89	1.34	
O=C1CCCN1Cc1ccccc1	-0.6	1.32	
Clc1ccc(Cn2ccnn2)cc1			logP (physchem [3]): 1.78
c1cnc2cccnc2c1	-0.49	0.79	
CN(C)C(=O)c1ccccc1	-0.98	0.71	
Clc1ccc2ncncc2c1			logP (physchem [3]): 1.78
CN(C)C(=O)Cc1ccc(Br)cc1	0.07	1.83	
Cn1c(=O)n(C)c2ccccc21	0.53	1.33	
Cc1cnccn1			logP (physchem [3]): 0.23
CC(=O)N(C)c1ccccc1	-0.54	1	
Cc1ccc2occc(=O)c2c1	0.56	1.9	
COc1ccc(C#N)cc1	0.92	1.75	
O=C1CCCN1CCCCN1CCN(c2cc(C(F)(F)F)ccn2)CC1			Kp (in vivo; brain): 1.45
Cc1cccc2c1Oc1ccccc1[C@@]1(O)CCN(C)C[C@@H]21			Kp (in vivo; brain): 6.61
Clc1ccc2c(c1)[C@H]1CNC[C@@H]1c1ccccc1O2			Kp (in vivo; brain / blood): 2.45
O=c1ccccn1Cc1ccc(C(F)(F)F)cc1	0.18	2.47	
CCn1c(C)cc(=O)c2ccc(Cl)cc21	-1.4	1.8	

SMILES	logD [1]	logD (physchem [2])	also measured
Clc1ccc2cc[nH]c2c1	1.36	3.22	
Cc1cccc2c1Oc1ccccc1[C@@]1(O)CCNC[C@@H]21			Kp (in vivo; brain): 3.31
Clc1ccccn1 [2-CHLOROPYRIDINE]	0.52	1.23	
O=S(=O)(c1ccccc1)c1ccccc1 [(PHENYLSULFONYL)BENZENE]	0.75	2.41	
CC(=O)c1ccccc1 [ACETOPHENONE]	0.96	1.61	logP [4]: 1.12
CN(C)CCC=C1c2ccccc2CCc2ccccc21 [AMITRIPTYLINE]			Kp (in vivo; brain / blood): 9.55
CN1C[C@@H]2c3ccccc3Oc3ccc(Cl)cc3[C@H]2C1 [ASENAPINE]			Kp (in vivo; brain): 10.7
N#Cc1ccccc1 [BENZONITRILE]	0.91	1.56	logP [4]: 0.99
c1ccc(Cn2ccnc2)cc1 [BENZYLIMIDAZOLE]	-0.83	1.55	
c1ccc2nnccc2c1 [CINNOLINE]			logP (physchem [3]): 1.01
CNCCCN1c2ccccc2CCc2ccccc21 [DESIPRAMINE]			Kp (in vivo; brain): 10
CN(C)CCCN1c2ccccc2CCc2ccccc21 [IMIPRAMINE]			Kp (in vivo; brain / blood): 11.2
N#Cc1ccncc1 [ISONICOTINONITRILE]			logP [5]: 0.46
c1ccc2cnccc2c1 [ISOQUINOLINE]	0.98	2.09	
CN1CCN2c3ncccc3Cc3ccccc3C2C1 (configuration not stated) [MIRTAZAPINE]			Kp (in vivo; brain): 3.39
O=[N+]([O-])c1ccccc1 [NITROBENZENE]		1.83	
Cc1nc2n(c(=O)c1CCN1CCC(c3noc4cc(F)ccc34)CC1)CCCC2O (configuration not stated) [PALIPERIDONE]			Kp (in vivo; brain / blood): 0.214
COc1ccc(CN(CCN(C)C)c2ccccn2)cc1 [PYRILAMINE]			Kp (in vivo; brain): 3.09
c1ccc2ncccc2c1 [QUINOLINE]		1.99	
Cc1nc2n(c(=O)c1CCN1CCC(c3noc4cc(F)ccc34)CC1)CCCC2 [RISPERIDONE]			Kp (in vivo; brain): 0.955

Further lines, with some results ahead:

logD [1]	logD (physchem [2])	SMILES	also measured
-0.15	1.32	CN1C(=O)c2ccccc2C1=O	
-0.15	1.52	Cn1c(=O)ccc2ccccc21	
0	1.25	CN1C(=O)Cc2ccccc21	
-0.29	1.02	O=C1Cc2ccccc2CO1	
0.16	1.6	CN(C)C(=O)N(C)c1ccccc1	
-0.03	2.09	O=c1ccccn1Cc1cccc(Cl)c1	
1.36	1.74	c1ccc2c(c1)COC2	
1.23	2.81	[O-][S+](CC1CCCCC1)c1ccccc1 (configuration not stated)	
0.49	1.69	CCN1C(=O)Cc2ccccc21	
-0.57	1.71	Cc1ccc2c(c1)c(C)cc(C)[n+]2[O-]	
-1.07	0.87	CN1Cc2ccccc2C1=O	
-0.72	1.37	O=c1ccccn1Cc1ccccc1	
-1.76	2.47	O=c1ccn(Cc2ccc(-c3ccccc3)cc2)cc1	
1.9	2.15	COc1ccccc1 [ANISOLE]	logP [4]: 2.13
0.75	1.49	c1ccc2nocc2c1 [BENZO[C]ISOXAZOLE]	
0.66	2.24	c1ccc2[nH]ccc2c1 [INDOLE]	
0.47	1.31	c1ccc2nccnc2c1 [QUINOXALINE]	
